From patent US6720139B1, “Genes identified as required for proliferation in Escherichia coli” (priority 1999, dated 2004)
≈ marks a conversion by molar mass, not a printed value. Like-named read-outs stand apart in the source and are kept apart here. Positions of bridges follow the written chain, without caps; N, C: chain ends. Non-standard residues stand in square brackets, D forms with d. Residues, ends and D or L forms follow the SMILES beside them. *: point of attachment. Ileψ(thiazoline)Cys = CC[C@H](C)[C@H](N)C1=N[C@H](C(=O)*)CS1; dOrn = NCCC[C@@H](N)C(=O)O

Key:
[1] = test system: E. coli cells expressing antisense RNA to rplL, rplJ, rplW or to comparison genes (elaD, visC, yohH, atpB/E); experiment: Antibiotic sensitivity of cells expressing antisense RNA (Example 9); assay type: cell-based; conditions: for sensitivity to erythromycin: initial experiments
Text: The effectiveness of the above cell based assay was validated using constructs expressing antisense RNA to E. coli genes rplL, rplJ, and rplW encoding ribosomal proteins L7/L12, L10 and L23 respectively. These proteins are part of the protein synthesis apparatus of the cell and as such are required for proliferation. These constructs were used to test the effect of antisense expression on cell sensitivity to antibiotics known to bind to the ribosome and thereby inhibit protein synthesis. Constructs expressing antisense RNA to several other genes (elaD, visC, yohH, and aptE/B), the products of which are not involved in protein synthesis were used for comparison.
First expression vectors containing antisense constructs to either rplW or to elaD were introduced into separate E. coli cell populations. Vector introduction is a technique well known to those of ordinary skill in the art. The expression vectors of this example contain IPTG inducible promoters that drive the expression of the antisense RNA in the presence of the inducer. However, those skilled in the art will appreciate that other inducible promoters may also be used. Suitable expression vectors are also well known in the art. The E. coli antisense clones encoding ribosomal proteins L7/L12, L10 and L23 were used to test the effect of antisense expression on cell sensitivity to the antibiotics known to bind to these proteins. […]
Cells were pretreated with the selected concentration of IPTG and then used to test the sensitivity of cell populations to tetracycline, erythromycin and other protein synthesis inhibitors. […] Cells were grown to log phase and then diluted into media alone or media containing IPTG at concentrations which give 20% and 50% growth inhibition as determined by IPTG dose response curves. […] The 96 well plates were incubated at 37° C. and the OD600 was read by a plate reader every 5 minutes for up to 15 hours. For each IPTG concentration and the no IPTG control, tetracycline dose response curves were determined when the control (absence of tetracycline) reached 0.1 OD600.

[2] = test system: bacterial strain engineered for expression of an antisense against rplL and rplJ (50S ribosomal subunit proteins); experiment: microbe, parasite or virus in culture; assay type: cell-based, E. coli
Method: A panel of test antibiotics known to act on different pathways is tested side by side with three to four wells being used to evaluate the effect of a test antibiotic on cell growth at each concentration. Equal volumes of test antibiotic and cells are added to the wells of a 384 well microtiter plate and mixed. Cells are prepared as described above using the media selected for assay development supplemented with the antibiotic required to maintain the antisense construct and are diluted 1:100 in identical media immediately prior to addition to the microtiter plate wells. For a control, cells are also added to several wells that contain the solvent used to dissolve the antibiotics but no antibiotic. Cell growth is monitored continuously by incubation at 37° C. in a microtiter plate reader monitoring the OD600 of the wells over an 18-hour period. […] A plot of percent inhibition against log[antibiotic concentration] allows extrapolation of an IC50 value for each antibiotic.
Two fold dilution series of the panel of test antibiotics used above are generated in each of these media. Several antibiotics are tested side by side with three to four wells being used to evaluate the effects of an antibiotic on cell growth at each concentration, in each media. Equal volumes of test antibiotic and cells are added to the wells of a 384 well microtiter plate and mixed. Cells are prepared as described above using the media selected for use in the assay supplemented with the antibiotic required to maintain the antisense construct. […] Immediately prior to addition to the microtiter plate wells, the cultures are adjusted to an appropriate OD600 (typically 0.002) by dilution into warm (37° C.) sterile media supplemented with identical concentrations of the inducer and antibiotic used to maintain the antisense construct. […] Cell growth is monitored continuously by incubation at 37° C. in a microtiter plate reader monitoring the OD600 of the wells over an 18-hour period. […]

E. coli = experiment: Inhibition of bacterial proliferation after IPTG induction of antisense clones (Example 1); assay type: cell-based, Escherichia coli; conditions: 1 mM IPTG, liquid or solid medium
Method: To study the effects of transcriptional induction in liquid medium, growth curves were carried out by back diluting cultures 1:200 into fresh media with or without 1 mM IPTG and measuring the OD450 every 30 minutes (min). To study the effects of transcriptional induction on solid medium, 10^2, 10^3, 10^4, 10^5, 10^6, 10^7 and 10^8 fold dilutions of overnight cultures were prepared. Aliquots of from 0.5 to 3 μl of these dilutions were spotted on selective agar plates with or without 1 mM IPTG. After overnight incubation, the plates were compared to assess the sensitivity of the clones to IPTG.
Of the numerous clones tested, some clones were identified as, a containing sequence that inhibited E. coli growth after IPTG induction. Accordingly, the gene to which the inserted nucleic acid sequence corresponds, or a gene within the operon containing the inserted nucleic acid, may be required for proliferation in E. coli.

In the case of `CCn1cc(C(=O)O)c(=O)c2ccc(C)nc21` [Nalidixic acid], the “sensitivity to antibiotics which do not inhibit protein synthesis” value ([1]; clone expressing antisense to rplL and rplJ) is reported as “does not show increased sensitivity”.

In the case of `CC[C@H](C)[C@H](N)C1=N[C@H](C(=O)N[C@@H](CC(C)C)C(=O)N[C@H](CCC(=O)O)C(=O)N[C@H](C(=O)N[C@H]2CCCCNC(=O)[C@H](CC(N)=O)NC(=O)[C@@H](CC(=O)O)NC(=O)[C@H](Cc3cnc[nH]3)NC(=O)[C@@H](Cc3ccccc3)NC(=O)[C@H]([C@@H](C)CC)NC(=O)[C@@H](CCCN)NC2=O)[C@@H](C)CC)CS1` [Bacitracin] ({Ileψ(thiazoline)Cys}-L[dE]IK[dOrn]I[dF]H[dD]N; lactam 4-C), the IC50 ([2]; read-out: IC50 (+IPTG)) is reported as 4680 µg/mL (≈ 3290 µM) and the IC50 ([2]; read-out: IC50 (−IPTG)) is reported as 4080 µg/mL (≈ 2870 µM).

Work on `CN(C)c1ccc(O)c2c1C[C@H]1C[C@H]3[C@H](N(C)C)C(O)=C(C(N)=O)C(=O)[C@@]3(O)C(O)=C1C2=O` [Minocycline] yielded an IC50 ([2]; read-out: IC50 (+IPTG)) of 0.0034 µg/mL (≈ 0.00743 µM).

For `CC[C@H]1OC(=O)[C@H](C)[C@@H](O[C@H]2C[C@@](C)(OC)[C@@H](O)[C@H](C)O2)[C@H](C)[C@@H](O[C@@H]2O[C@H](C)C[C@H](N(C)C)[C@H]2O)[C@](C)(O)C[C@@H](C)C(=O)[C@H](C)[C@@H](O)[C@]1(C)O` [Erythromycin], the sensitivity to erythromycin ([1]; clones expressing antisense to non-protein synthesis genes elaD, atpB/E and visC) was “do not” and the sensitivity to erythromycin ([1]; clones expressing antisense to protein synthesis genes (L7/L12 & L10, L7/L12 alone, L22, L18, rRNA, Elongation Factor G)) was “increased sensitivity”.

B1: EcXA006: identified antisense clone, gene pta (nucleic acid)
DNA: GCGCATACCCTGCAGCATCGGCCCGATGGAGATCAGGTCGGCAGAACGCTGTACCGCTTTGTAGGTGGTGTTACCGGTGNTCAGATCCGGGAAGATGAACACGGTAGCGCGACCTGCAACCGGAGAGTTCGGCGCTTTGGATTNCGCAACGTCAGCCATTACCGCAGCGTCGTACTGCAGCGGACCGGCGATCATCAGGTCA
modifications: E. Coli; misc_feature (1)...(202): n = A,T,C or G
notes: identified antisense clone, gene pta
For B1, the “E. coli growth after IPTG induction of antisense expression” value (shortened to “E. coli growth after IPTG induction”) (E. coli) was “reduction in cell growth”.

B2: EcXA053: identified antisense clone, gene gor (nucleic acid, listed as Escherichia coli)
DNA 1: TGGAGAAAACGGGTGATTGATAAAGCAATCATCGTTCTAGGGGCGTTAATTGCGCTGCTGGAACTGATCCCGCTTTCTGCTTCAAGCTTCTGAACTGGATACGGAAACGTAATNAGGGCTAAAGAAGACACTACTCTTAGCCCTTTAACATTTAACGCATTGTCACGAACTCTTCTGCCGCCGTTGGGTGAATGGCGACGGGTATTGGTCGAAATCTTTTTTGGGTGGCCCCATCTTTAACGCCCACCCGCGAAACCCTGCAACATTTCGTC
DNA 2: TGGAGAAAACGGGTGATTGATAAAGCAATCATCGTTCTAGGGGCGTTAATTGCGCTGCTGGAACTGATCCGCTTTCTGCTTCAGCTTCTGAACTGATAGCGGAAACGTAATTAAGGGCTAAGAGCACACTACTCTTAGCCCTTTAACATTTAACGCATTGTCACGAACTCTTCTGCCGCCGTTGGGTGAATGGCGACGGTATTGTCGAAGTCTTTTTTGGTTGCCCCCATCTTCAGCGCCACCGCGAAGCCCTGCAACATTTCGTC
modifications: E. Coli; misc_feature (1)...(272): n = A,T,C or G
notes: identified antisense clone, gene gor
For B2, the “E. coli growth after IPTG induction” value (E. coli) was “reduction in cell growth”.

B3: EcXA044: identified antisense clone, gene purB (nucleic acid)
DNA: TTAATTATTAAAATAGTGTAACGCGATTATGTGGTTATGGGGGTAAACATTAAATAAACCAGCGGGGAGGGGAGGTAAAGTGAAAAAATAAAAAGCGGATAATCTTAATAAGCAGGCCGGACAGCATCGCCATCCGGCACTGATACGAGGTTTATTTCAGCTCATCAACCATCG
modifications: E. Coli
notes: identified antisense clone, gene purB
For B3, the “E. coli growth after IPTG induction” value (E. coli) was “reduction in cell growth”.

B4: EcXA046: identified clone corresponding to an intergenic sequence, fimE, fimA (nucleic acid)
DNA: TTTGTTGGCTTAATATTCTATTGTTATCTTTATTTATAGATGTTTATATTGCATGAGGTGGTTTTTGGAGAGAAGAATGAGGAAGATGCGTCGAGCCACAGAAACGTTAGCTTTACATATAGCGGAGGTGATGTGAATTTAATTTACAATAGAAATAATTTACATATCAAACAGTTAGATGCTTTTTGTCG
modifications: E. Coli
For B4, the “E. coli growth after IPTG induction” value (E. coli) was “reduction in cell growth”.
